In assay [1] the target is T1, Recombinant STAT3 protein (STAT3(G127-I722)) (Homo sapiens, UniProt P40763).
T1 construct: Recombinant STAT3 protein (STAT3(G127-I722))
The assay is described as follows: STAT3 Fluorescence Polarization (FP) Assay. It counts as binding. Particulars: STAT3(G127-I722) 25 nM, probe 5-FAM-GpYLPQTV-NH2 2 nM, 45-minute incubation. In outline: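 STAT3(G127-I722), 25 nM, was mixed with 2 nM 5-FAM-GpYLPQTV-NH2 probe in HEPES pH 7.4 buffer with 1% DMSO and serially diluted compound. FP (mP) was read after 45 min at room temperature. IC50 came from nonlinear regression.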
For orientation: Fluorescence polarisation rises when a labelled molecule tumbles more slowly, as on binding a larger partner.

Assay [2] deals with T2, Recombinant STAT6 protein (STAT6(W123-T658)) (Homo sapiens, UniProt P42226).
T2 construct: Recombinant STAT6 protein (STAT6(W123-T658))
T2 sequence (P42226 123-658): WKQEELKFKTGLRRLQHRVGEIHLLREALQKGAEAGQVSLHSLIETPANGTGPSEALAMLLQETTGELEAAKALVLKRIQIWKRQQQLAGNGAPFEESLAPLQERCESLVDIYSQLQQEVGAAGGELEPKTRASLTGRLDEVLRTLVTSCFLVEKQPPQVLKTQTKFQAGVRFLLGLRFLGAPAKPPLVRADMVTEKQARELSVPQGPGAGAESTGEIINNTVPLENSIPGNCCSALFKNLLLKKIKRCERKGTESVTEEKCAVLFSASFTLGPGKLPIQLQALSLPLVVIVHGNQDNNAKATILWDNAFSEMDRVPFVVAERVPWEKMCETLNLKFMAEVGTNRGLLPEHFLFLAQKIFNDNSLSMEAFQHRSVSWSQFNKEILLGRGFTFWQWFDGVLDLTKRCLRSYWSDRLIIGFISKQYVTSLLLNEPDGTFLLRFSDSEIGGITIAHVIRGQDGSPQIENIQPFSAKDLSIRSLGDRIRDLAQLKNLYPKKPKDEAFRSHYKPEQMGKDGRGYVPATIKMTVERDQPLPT
The assay is described as follows: STAT6 Fluorescence Polarization (FP) Assay. It counts as binding. Conditions: STAT6(W123-T658) 250 nM, probe 5-FAM-ApYKPFQDLI-NH2 2 nM, 45-minute incubation. The method, boiled down: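 Displacement of a fluorescent phosphotyrosine peptide (5-FAM-ApYKPFQDLI-NH2, 2 nM) from STAT6(W123-T658) (250 nM), 1% DMSO, pH 7.4 HEPES buffer. After 45 min at room temperature, polarization (mP) was plotted versus log compound concentration and fitted by nonlinear regression to give IC50.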

Some results are limits rather than exact numbers.

T1 sequence (P40763 127-722): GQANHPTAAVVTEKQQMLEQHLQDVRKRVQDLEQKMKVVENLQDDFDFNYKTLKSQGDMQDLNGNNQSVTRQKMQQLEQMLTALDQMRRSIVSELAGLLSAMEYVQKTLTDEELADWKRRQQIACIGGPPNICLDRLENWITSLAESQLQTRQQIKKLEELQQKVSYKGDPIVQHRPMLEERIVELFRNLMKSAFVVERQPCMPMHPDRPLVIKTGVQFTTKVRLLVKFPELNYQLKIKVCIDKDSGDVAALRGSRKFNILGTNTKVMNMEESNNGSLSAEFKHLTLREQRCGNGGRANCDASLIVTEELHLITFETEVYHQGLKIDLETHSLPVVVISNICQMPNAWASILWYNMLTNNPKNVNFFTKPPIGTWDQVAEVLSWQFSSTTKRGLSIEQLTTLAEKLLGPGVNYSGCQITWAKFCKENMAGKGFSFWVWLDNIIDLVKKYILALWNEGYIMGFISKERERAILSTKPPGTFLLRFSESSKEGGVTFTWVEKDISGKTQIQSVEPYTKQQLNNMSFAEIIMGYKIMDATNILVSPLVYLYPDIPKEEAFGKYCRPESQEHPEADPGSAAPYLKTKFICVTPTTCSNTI

A word on the IC50: it is the concentration that gives 50% inhibition. As for `CCN(C(=O)[C@@H]1CC[C@@H]2CCN(C(C)=O)C[C@H](NC(=O)c3cc4cc(C(F)(F)P(=O)(O)O)ccc4[nH]3)C(=O)N21)c1ccccc1` [Compound 169, ((2-(((5S,8S,10aR)-3-acetyl-8-(ethyl(phenyl)carbamoyl)-6-oxodecahydropyrrolo[1,2-a][1,5]diazocin-5-yl)carbamoyl)-1H-indol-5-yl)difluoromethyl)phosphonic acid], the IC50 in assay [1] lay in the range of 1000 to 10000 nM; in assay [2] it was 300 to 3000 nM.

For the compound `CC(=O)N1CC(N(C)C(=O)[C@@H]2CC[C@@H]3CCN(C(C)=O)C[C@H](NC(=O)c4cc5cc(C(F)(F)P(=O)(O)O)ccc5[nH]4)C(=O)N32)C1` [Compound 170, ((2-(((5S,8S,10aR)-3-acetyl-8-((1-acetylazetidin-3-yl)(methyl)carbamoyl)-6-oxodecahydropyrrolo[1,2-a][1,5]diazocin-5-yl)carbamoyl)-1H-indol-5-yl)difluoromethyl)phosphonic acid], the IC50 in assay [1] fell in the range of 1000 to 10000 nM; in assay [2], 300 to 3000 nM.

Take `CC(=O)N1CC(N(C)C(=O)[C@@H]2CC[C@@H]3CCN(C(C)=O)C[C@H](NC(=O)c4cc5cc(C(F)(F)P(=O)(O)O)ccc5s4)C(=O)N32)C1` [Compound 171, ((2-(((5S,8S,10aR)-3-acetyl-8-((1-acetylazetidin-3-yl)(methyl)carbamoyl)-6-oxodecahydropyrrolo[1,2-a][1,5]diazocin-5-yl)carbamoyl)benzo[b]thiophen-5-yl)difluoromethyl)phosphonic acid]: the IC50 in assay [1] is 1000 to 10000 nM; in assay [2], 300 to 3000 nM.

Take `CC(=O)N1CC[C@H]2CC[C@@H](C(=O)Nc3ccc4ncncc4c3)N2C(=O)[C@@H](NC(=O)c2cc3cc(C(F)(F)P(=O)(O)O)ccc3s2)C1` [Compound 172, ((2-(((5S,8S,10aR)-3-acetyl-6-oxo-8-(quinazolin-6-ylcarbamoyl)decahydropyrrolo[1,2-a][1,5]diazocin-5-yl)carbamoyl)benzo[b]thiophen-5-yl)difluoromethyl)phosphonic acid]: the IC50 lay in the range of 1000 to 10000 nM in assay [1] and 300 to 3000 nM in assay [2].

`CC(=O)N1CC[C@H]2CC[C@@H](C(=O)Nc3ccc4ccccc4c3)N2C(=O)[C@@H](NC(=O)c2cc3cc(C(F)(F)P(=O)(O)O)ccc3s2)C1` [Compound 173, ((2-(((5S,8S,10aR)-3-acetyl-8-(naphthalen-2-ylcarbamoyl)-6-oxodecahydropyrrolo[1,2-a][1,5]diazocin-5-yl)carbamoyl)benzo[b]thiophen-5-yl)difluoromethyl)phosphonic acid]: the results for the IC50 in assay [1] and in assay [2] were 100 to 1000 nM and 300 to 3000 nM, respectively.

Regarding `CC(=O)N1CC[C@H]2CC[C@@H](C(=O)Nc3ccc4nnccc4c3)N2C(=O)[C@@H](NC(=O)c2cc3cc(C(F)(F)P(=O)(O)O)ccc3s2)C1` [Compound 174, ((2-(((5S,8S,10aR)-3-acetyl-8-(cinnolin-6-ylcarbamoyl)-6-oxodecahydropyrrolo[1,2-a][1,5]diazocin-5-yl)carbamoyl)benzo[b]thiophen-5-yl)difluoromethyl)phosphonic acid], the figures for the IC50 in assay [1] and in assay [2] were 100 to 1000 nM and ≤ 300 nM, respectively.

Take `CC(=O)N1CC[C@H]2CC[C@@H](C(=O)Nc3ccc4[nH]ncc4c3)N2C(=O)[C@@H](NC(=O)c2cc3cc(C(F)(F)P(=O)(O)O)ccc3s2)C1` [Compound 175, ((2-(((5S,8S,10aR)-8-((1H-indazol-5-yl)carbamoyl)-3-acetyl-6-oxodecahydropyrrolo[1,2-a][1,5]diazocin-5-yl)carbamoyl)benzo[b]thiophen-5-yl)difluoromethyl)phosphonic acid]: the IC50 is 100 to 1000 nM in assay [1] and 300 to 3000 nM in assay [2].

As to `CC(=O)N1CC[C@H]2CC[C@@H](C(=O)Nc3ccc(-c4ccccc4)cc3CC#N)N2C(=O)[C@@H](NC(=O)c2cc3cc(C(F)(F)P(=O)(O)O)ccc3s2)C1` [Compound 176, ((2-(((5S,8S,10aR)-3-acetyl-8-((3-(cyanomethyl)-[1,1′-biphenyl]-4-yl)carbamoyl)-6-oxodecahydropyrrolo[1,2-a][1,5]diazocin-5-yl)carbamoyl)benzo[b]thiophen-5-yl)difluoromethyl)phosphonic acid], the IC50 in assay [1] lay in the range of 100 to 1000 nM; in assay [2] it was 300 to 3000 nM.

As to `CC(=O)N1CC[C@H]2CC[C@@H](C(=O)Nc3ccc(-c4ccccc4)cc3CC(N)=O)N2C(=O)[C@@H](NC(=O)c2cc3cc(C(F)(F)P(=O)(O)O)ccc3s2)C1` [Compound 177, ((2-(((5S,8S,10aR)-3-acetyl-8-((3-(2-amino-2-oxoethyl)-[1,1′-biphenyl]-4-yl)carbamoyl)-6-oxodecahydropyrrolo[1,2-a][1,5]diazocin-5-yl)carbamoyl)benzo[b]thiophen-5-yl)difluoromethyl)phosphonic acid], the figures for the IC50 in assay [1] and in assay [2] were ≤ 100 nM and 300 to 3000 nM, respectively.

Consider `CC(=O)N1CC[C@H]2CC[C@@H](C(=O)Nc3ccc(-c4ccccc4)cc3[N+](=O)[O-])N2C(=O)[C@@H](NC(=O)c2cc3cc(C(F)(F)P(=O)(O)O)ccc3s2)C1` [Compound 178], for which the results for the IC50 in assay [1] and in assay [2] were 100 to 1000 nM and 300 to 3000 nM, respectively.

Turning to `CC(=O)N1CC[C@H]2CC[C@@H](C(=O)Nc3ccc(-c4ccccc4)c([N+](=O)[O-])c3)N2C(=O)[C@@H](NC(=O)c2cc3cc(C(F)(F)P(=O)(O)O)ccc3s2)C1` [Compound 179, ((2-(((5S,8S,10aR)-3-acetyl-8-((2-nitro-[1,1′-biphenyl]-4-yl)carbamoyl)-6-oxodecahydropyrrolo[1,2-a][1,5]diazocin-5-yl)carbamoyl)benzo[b]thiophen-5-yl)difluoromethyl)phosphonic acid], the IC50 in assay [1] was 100 to 1000 nM; in assay [2], 300 to 3000 nM.

`CC(=O)N1CC[C@H]2CC[C@@H](C(=O)Nc3ccc(-c4ccccc4)[nH]c3=O)N2C(=O)[C@@H](NC(=O)c2cc3cc(C(F)(F)P(=O)(O)O)ccc3[nH]2)C1` [Compound 180, ((2-(((5S,8S,10aR)-3-acetyl-6-oxo-8-((2-oxo-6-phenyl-1,2-dihydropyridin-3-yl)carbamoyl)decahydropyrrolo[1,2-a][1,5]diazocin-5-yl)carbamoyl)-1H-indol-5-yl)difluoromethyl)phosphonic acid]: the IC50 in assay [1] is 100 to 1000 nM; in assay [2], 300 to 3000 nM.

In the case of `CC(=O)N1CC[C@H]2CC[C@@H](C(=O)Nc3ccccc3)N2C(=O)[C@@H](NC(=O)c2cc3cc(C(F)(F)P(=O)(O)O)ccc3s2)C1` [Compound 181, ((2-(((5S,8S,10aR)-3-acetyl-6-oxo-8-(phenylcarbamoyl)decahydropyrrolo[1,2-a][1,5]diazocin-5-yl)carbamoyl)benzo[b]thiophen-5-yl)difluoromethyl)phosphonic acid], the IC50 is 1000 to 10000 nM in assay [1] and 300 to 3000 nM in assay [2].

For `CC(=O)N1CC[C@H]2CC[C@@H](C(=O)N[C@H]3CN(C(C)=O)C[C@@H]3O)N2C(=O)[C@@H](NC(=O)c2cc3cc(C(F)(F)P(=O)(O)O)ccc3s2)C1` [Compound 182, ((2-(((5S,8S,10aR)-3-acetyl-8-(((3S,4S)-1-acetyl-4-hydroxypyrrolidin-3-yl)carbamoyl)-6-oxodecahydropyrrolo[1,2-a][1,5]diazocin-5-yl)carbamoyl)benzo[b]thiophen-5-yl)difluoromethyl)phosphonic acid], the IC50 in assay [1] was in the range of 100 to 1000 nM; in assay [2], 300 to 3000 nM.

Values taken from US20250179103A1, “6-OXODECAHYDROPYRROLO[1,2-A][1,5]DIAZOCINE AND 6-OXODECAHYDRO-4H-PYRROLO[2,1-D][1,5]THIAZOCINE DERIVATIVES AS STAT3 AND STAT6 MODULATORS FOR THE TREATMENT OF CANCER AND INFLAMMATORY CONDITIONS” (Recludix Pharma, Inc., priority 2022, published 2025).
